Test systems include MCF7 breast; HCC-2998 colon; M14 melanoma; BT-549 breast; SNB-75 CNS; UO-31 renal; UACC-62 melanoma; EKVX NSCLC; T-47D breast; RPMI-8226 leukemia.
Holding throughout (test): growth of human tumour cells (NCI), 48 h

Structures are written as SMILES.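 In this assay, cells in 96-well plates receive the compound at five concentrations for 48 hours. Endpoints are linearly interpolated between the surrounding concentrations. At the GI50, growth is halved. TGI is the concentration that stops growth completely.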 Where only a bound is given, the exact number is not on record here.

Turning to `O=S(=O)(/N=c1/scc(-c2ccccc2)n1-c1ccccc1)c1ccc(N2N=C3c4ccccc4CC3C2c2cccs2)cc1` (stereo not given), the GI50 is 29.1 µM in the assay on MCF7 breast; 32.8 µM in the assay with HCC-2998 colon; 81.5 µM in the assay with M14 melanoma; 47.5 µM in the assay on BT-549 breast; > 100 µM with SNB-75 CNS; > 100 µM with UO-31 renal. Moreover, the GI50 in the assay with UACC-62 melanoma is 60.3 µM; in the assay with EKVX NSCLC, 35.5 µM; in the assay with T-47D breast it was > 100 µM; in the assay with RPMI-8226 leukemia, 51 µM. Besides, the TGI in the assay with MCF7 breast is > 100 µM; in the assay on HCC-2998 colon, 81.3 µM; in the assay on M14 melanoma it was > 100 µM; with BT-549 breast, > 100 µM; in the assay with SNB-75 CNS it was > 100 µM; with UO-31 renal, > 100 µM. In addition, the TGI in the assay with UACC-62 melanoma, in the assay with EKVX NSCLC, in the assay on T-47D breast and with RPMI-8226 leukemia was > 100 µM in each case.

As to `CN1C/C=C/CCOc2cccc(c2)-c2ccnc(n2)Nc2cccc(c2)C1`, the GI50 was 0.0309 µM in the assay with MCF7 breast; 0.048 µM in the assay with HCC-2998 colon; 0.0391 µM in the assay on M14 melanoma; 0.0398 µM with BT-549 breast; 0.039 µM with SNB-75 CNS; 0.0251 µM in the assay with UO-31 renal. Also, the GI50 is 0.0328 µM in the assay on UACC-62 melanoma, 0.0501 µM with EKVX NSCLC, 0.0437 µM with T-47D breast and 0.058 µM in the assay with RPMI-8226 leukemia. In addition, the TGI was 1.17 µM in the assay with MCF7 breast; 0.623 µM with HCC-2998 colon; 0.181 µM with M14 melanoma; 0.21 µM with BT-549 breast; 0.184 µM in the assay on SNB-75 CNS; 0.0849 µM in the assay with UO-31 renal. Besides, the TGI is 0.128 µM with UACC-62 melanoma, 0.666 µM with EKVX NSCLC, 0.447 µM with T-47D breast and 0.879 µM in the assay with RPMI-8226 leukemia.

Consider `CCCCCCCCCCCCCCCCC(=O)O.CCCCCCCCCCCCCCCCCC(=O)O.CCCCCCCCCCCCCCCCCC(=O)O.CCCCCCCCCCCCCCCCCC(=O)O.CCCCCCCCCCCCCCCCCC(=O)O.CO[CH-]OC12COC1CC(O)C1(C)C(O)C(OC(C)O)C3=C(C)C(OC(=O)C(O)C([NH-])c4ccccc4)CC(O)(C(OC(=O)c4ccccc4)C21)C3(C)C.[Cu+].[Zn].[Zn].[Zn].[Zn].[Zn]` (stereo not given), for which the GI50 was 0.00262 µM with MCF7 breast; 0.00647 µM with HCC-2998 colon; 0.00947 µM in the assay with BT-549 breast; < 0.0025 µM with SNB-75 CNS; 0.487 µM with UO-31 renal; 0.0118 µM in the assay on UACC-62 melanoma. Moreover, the GI50 in the assay on EKVX NSCLC is 0.112 µM; in the assay on T-47D breast it was 0.00863 µM; with RPMI-8226 leukemia it was 0.00776 µM. In addition, the TGI in the assay with MCF7 breast is 3.83 µM; in the assay on BT-549 breast, 3.95 µM; with SNB-75 CNS, 0.0211 µM; in the assay on UO-31 renal, > 14.5 µM; in the assay with UACC-62 melanoma it was 5.47 µM; in the assay with EKVX NSCLC, 9.22 µM. Moreover, the TGI in the assay with T-47D breast and in the assay with RPMI-8226 leukemia was > 25 µM throughout.

`COc1cc(C(=O)Nc2cc(OC)c3ccn(C)c3c2)cc2c1C[C@]1(C)CC[C@@H](O)C(C)(C)[C@H]1O2`: the GI50 with MCF7 breast was 0.612 µM; in the assay with HCC-2998 colon, 3.74 µM; in the assay on M14 melanoma, 0.454 µM; in the assay on BT-549 breast, 0.558 µM; in the assay on SNB-75 CNS, 0.0521 µM; in the assay with UO-31 renal it was 0.0988 µM. Also, the GI50 is 0.257 µM in the assay with UACC-62 melanoma, 1.87 µM with EKVX NSCLC, 1.8 µM with T-47D breast and 0.0392 µM in the assay with RPMI-8226 leukemia. For the same compound, the TGI in the assay with MCF7 breast came out at 15.1 µM; with HCC-2998 colon, 49.8 µM; in the assay on M14 melanoma, 2.9 µM; in the assay with BT-549 breast, 30.3 µM; in the assay on SNB-75 CNS, 2.19 µM; in the assay with UO-31 renal, 1.17 µM. The TGI was 1.31 µM in the assay with UACC-62 melanoma, > 100 µM in the assay with EKVX NSCLC, 14.8 µM in the assay on T-47D breast and 1.16 µM in the assay on RPMI-8226 leukemia.

Take `CN(C)c1ccc(/C=C/C2=[N+](C)c3ccccc3C2(C)C)cc1`: the GI50 was 0.382 µM in the assay with MCF7 breast; 1.35 µM in the assay on HCC-2998 colon; 0.75 µM in the assay on M14 melanoma; 0.467 µM in the assay on BT-549 breast; 2.47 µM with SNB-75 CNS; 2.61 µM in the assay on UO-31 renal. Moreover, the GI50 is 1.36 µM in the assay on UACC-62 melanoma, 0.508 µM in the assay with EKVX NSCLC, 0.401 µM with T-47D breast and 0.247 µM with RPMI-8226 leukemia. The TGI in the assay on MCF7 breast is 8.11 µM; in the assay with HCC-2998 colon it was 11.5 µM; in the assay with M14 melanoma, 14.4 µM; in the assay with BT-549 breast it was 12.6 µM; with SNB-75 CNS, 20.6 µM; with UO-31 renal, 83.3 µM. Moreover, the TGI in the assay with UACC-62 melanoma stood at 19.2 µM; in the assay on EKVX NSCLC it was 20 µM; in the assay with T-47D breast, 9.29 µM; in the assay with RPMI-8226 leukemia, 3.48 µM.

Regarding `COc1cc(C(=O)N/N=C/c2ccc(N(C)C)cc2)cc(OC)c1OC`, the GI50 in the assay with MCF7 breast was 0.34 µM; with HCC-2998 colon, 0.551 µM; with M14 melanoma it was 0.335 µM; with BT-549 breast it was 0.696 µM; in the assay on SNB-75 CNS, 0.152 µM; with UO-31 renal, 0.656 µM. The GI50 in the assay with UACC-62 melanoma is 0.417 µM; in the assay on EKVX NSCLC, > 100 µM; in the assay with T-47D breast, > 100 µM; in the assay with RPMI-8226 leukemia, 0.344 µM. Also, the TGI in the assay on MCF7 breast is > 100 µM; in the assay on HCC-2998 colon it was 19.1 µM; in the assay on M14 melanoma, > 100 µM; with BT-549 breast, > 26.7 µM; in the assay with SNB-75 CNS it was > 100 µM; in the assay on UO-31 renal it was > 100 µM. Further, the TGI in the assay on UACC-62 melanoma, in the assay on EKVX NSCLC and in the assay with T-47D breast was > 100 µM throughout.

In the case of `CC(=O)Oc1ccc(/C(=C(\C)c2ccc(Cl)cc2)c2ccc(OCCN3CCCCC3)cc2)cc1`, the TGI in the assay with MCF7 breast was determined as 2.55 µM; in the assay with HCC-2998 colon, 3.68 µM; in the assay with M14 melanoma, 3.17 µM; in the assay with BT-549 breast, 3.58 µM; in the assay with SNB-75 CNS it was 3.77 µM; in the assay on UO-31 renal it was 3.09 µM. In addition, the TGI in the assay with UACC-62 melanoma came to 3.73 µM; in the assay on EKVX NSCLC it was 6.32 µM; in the assay on T-47D breast, 4.37 µM; in the assay on RPMI-8226 leukemia, 4.64 µM. Moreover, the GI50 with HCC-2998 colon was 1.87 µM; in the assay on M14 melanoma it was 1.69 µM; in the assay with BT-549 breast it was 1.83 µM; in the assay on SNB-75 CNS it was 1.55 µM; in the assay on UO-31 renal, 1.59 µM; in the assay on UACC-62 melanoma it was 1.86 µM. Besides, the results for the GI50 with EKVX NSCLC, in the assay with T-47D breast and with RPMI-8226 leukemia were 2.15 µM, 1.09 µM and 2.1 µM, respectively.

Source of the values: PubChem BioAssay (NCI).
